The results in this text go back to patent US8614206B2 (Genentech, Inc., priority 2011, dated 2013).

Where two headings read alike, the source gives them in different places. Where only a bound is given, the exact number is not on record here.

The subject of one test is BaF3 parental cells. The test can be described thus: In vitro cell proliferation, BaF3 parental line + IL3 (CellTiter-Glo). It counts as cell-based, murine. (In general: In ATP-based viability assays light output follows the ATP content of the culture.)
Test [1] concerns MM1.S (multiple myeloma) cells. The test can be described thus: In vitro cell proliferation, MM1.S multiple myeloma cells (CellTiter-Glo, ATP). The test is classed as cell-based. Conditions: read-out: Prolif MM1S ATP (EC50). As to the method: BaF3, a murine interleukin-3 dependent pro-B cell line, parental cells, BaF3 PIM1 cells, BaF3 PIM2 cells, and MM1.S (multiple myeloma) cells were seeded at 2 k/well, 5 k/well, 5 k/well, and 10 k/well respectively, in a 384-well plate, at 45 μL/well. Test compound was added at 5 μL/well. BaF3 cells (parental and transfected) were incubated overnight, while MM1.S cells were incubated for 72 hours at 37° C., 5% CO2. […] IC50/EC50 values for the test compound were calculated.

The mark [2] stands for this setting: Mus musculus, BaF3, BaF3 parental cells with IL-3, incubated overnight, read-out: Prolif BaF3 IL3 (IC50).
Where [3] appears, read: Mus musculus, BaF3, BaF3 parental cells with IL-3, incubated overnight, read-out: Prolif BaF3 + IL3 (IC50).

The term IC50 denotes the midpoint of a concentration-inhibition curve. As usually defined, the EC50 is the concentration at which the effect is half-maximal.

Procedure for BaF3 parental cells: BaF3 parental line was obtained from the DSMZ repository. BaF3 lines transfected with PIM 1 or PIM2 were generated. Mouse IL-3 was purchased from R&D Systems. G418 was purchased from Clontech. Media for BaF3 parental line contained RPMI, 10% FBS, 2 mM L-Glutamine, 2 ng/mL mIL-3. Media for BaF3 PIM1 & 2 lines contained RPMI, 10% FBS, 2 mM L-Glutamine, 250 μg/mL.
BaF3, a murine interleukin-3 dependent pro-B cell line, parental cells, BaF3 PIM1 cells, BaF3 PIM2 cells, and MM1.S (multiple myeloma) cells were seeded at 2 k/well, 5 k/well, 5 k/well, and 10 k/well respectively, in a 384-well plate, at 45 μL/well. Test compound was added at 5 μL/well. BaF3 cells (parental and transfected) were incubated overnight, while MM1.S cells were incubated for 72 hours at 37° C., 5% CO2. CELL TITER GLO® Reagent (Promega) was added at 50 μL/well, the plates were incubated for 30 minutes, and their luminescence read on an HT Analyst. IC50/EC50 values for the test compound were calculated.

As for `CC[C@H]1CNCCN1c1c(NC(=O)c2nc(-c3c(F)cccc3F)sc2N)cnn1C` [Example 113, (S)-5-Amino-2-(2,6-difluorophenyl)-N-(5-(2-ethylpiperazin-1-yl)-1-methyl-1H-pyrazol-4-yl)thiazole-4-carboxamide], the IC50 in the test on BaF3 parental cells (setting [2]) is more than 25 µM. Further, the EC50 in test [1] (Homo sapiens, MM1.S, 72 h) turned out to be 19 µM.

Take `COC1(C)CCN(c2c(NC(=O)c3nc(-c4c(F)cccc4F)sc3N)cnn2C)CCC1N` (centres unmarked) [Example 485, 5-amino-N-[5-(5-amino-4-methoxy-4-methyl-azepan-1-yl)-1-methyl-pyrazol-4-yl]-2-(2,6-difluorophenyl)thiazole-4-carboxamide]: the IC50 in the test on BaF3 parental cells (setting [3]) was 11.6 µM. Besides, in test [1] (Homo sapiens, MM1.S, 72 h), the concentration for a half-maximal effect (EC50) amounted to 0.415 µM.

For the compound `Cn1ncc(NC(=O)c2nc(-c3c(F)cccc3F)sc2N)c1N1CCC(N)C(O)CC1` (single isomer, unassigned) [Example 328, 5-amino-N-[5-(4-amino-5-hydroxy-azepan-1-yl)-1-methyl-pyrazol-4-yl]-2-(2,6-difluorophenyl)thiazole-4-carboxamide], in the test on BaF3 parental cells (BaF3 parental cells with IL-3, incubated overnight, read-out: Prolif BaF3 + IL3 (IC50)), the half-inhibitory concentration (IC50) was more than 25 µM. In addition, the EC50 in test [1] (72 hours) was determined as 11.5 µM.

`CC[C@H]1CN(c2c(NC(=O)c3nc(-c4c(F)cccc4F)sc3N)cnn2C)CC[C@@]1(CN)OC` [Example 496, 5-amino-N-(5-((3S,4R)-4-(aminomethyl)-3-ethyl-4-methoxypiperidin-1-yl)-1-methyl-1H-pyrazol-4-yl)-2-(2,6-difluorophenyl)thiazole-4-carboxamide]: in the test on BaF3 parental cells (setting [3]), the IC50 amounted to 11.6 µM. Moreover, the EC50 in test [1] (Homo sapiens, MM1.S, 72 h) was determined as 19.6 µM.

For the compound `Cn1ncc(NC(=O)c2nc(-c3c(F)cccc3F)sc2N)c1N1CC[C@H](N)C[C@@H](F)C1` (stereo in doubt) [Example 154, 5-amino-N-(5-(5-amino-3-fluoroazepan-1-yl)-1-methyl-1H-pyrazol-4-yl)-2-(2,6-difluorophenyl)thiazole-4-carboxamide], in the test on BaF3 parental cells (setting [2]), the IC50 is 24.5 µM. In test [1] (Homo sapiens, MM1.S, 72 h), the EC50 worked out at 0.0651 µM.

Turning to `Cn1ncc(NC(=O)c2nc(-c3c(F)cccc3F)sc2N)c1N1CCC(N)CC2(CCO2)C1` (single isomer, unassigned) [Example 448, 5-amino-N-[5-(6-amino-1-oxa-9-azaspiro[3.6]decan-9-yl)-1-methyl-pyrazol-4-yl]-2-(2,6-difluorophenyl)thiazole-4-carboxamide], the IC50 with BaF3 parental cells (setting [3]) was more than 25 µM. The EC50 in test [1] (72 hours) was found to be 1.4 µM.

`CCOC1CCN(c2c(NC(=O)c3nc(-c4c(F)cccc4F)sc3N)cnn2C)CCC1N` (centres unmarked) [Example 514, 5-amino-N-[5-(4-amino-5-ethoxy-azepan-1-yl)-1-methyl-pyrazol-4-yl]-2-(2,6-difluorophenyl)thiazole-4-carboxamide]: the IC50 in the test with BaF3 parental cells (setting [3]) amounted to 15.4 µM. In addition, the EC50 in test [1] (72 hours) is 3.1 µM.

Turning to `Cn1ncc(NC(=O)c2nc(-c3c(F)cccc3F)sc2N)c1N1CCC(N)C(CO)CC1` (centres unmarked) [Example 513, 5-amino-N-[5-[4-amino-5-(hydroxymethyl)azepan-1-yl]-1-methyl-pyrazol-4-yl]-2-(2,6-difluorophenyl)thiazole-4-carboxamide], the IC50 in the test with BaF3 parental cells (setting [3]) is more than 25 µM. Moreover, the EC50 in test [1] (Homo sapiens, MM1.S, 72 h) turned out to be 7.2 µM.

On to `CO[C@@H]1CCN(c2c(NC(=O)c3nc(-c4c(F)cccc4F)sc3N)cnn2C)CC2(CC2)[C@@H]1N` [Example 517, 5-amino-N-(5-((8R,9S)-9-amino-8-methoxy-5-azaspiro[2.6]nonan-5-yl)-1-methyl-1H-pyrazol-4-yl)-2-(2,6-difluorophenyl)thiazole-4-carboxamide], for which the IC50 with BaF3 parental cells (setting [3]) was 11.9 µM. Moreover, the EC50 in test [1] (Homo sapiens, MM1.S, 72 h) was 9.9 µM.

Regarding `Cn1ncc(NC(=O)c2nc(-c3c(F)cccc3F)sc2N)c1N1CCC2(CCNC2)CC1` [Example 124, 5-Amino-2-(2,6-difluorophenyl)-N-(1-methyl-5-(2,8-diazaspiro[4.5]decan-8-yl)-1H-pyrazol-4-yl)thiazole-4-carboxamide], the IC50 in the test with BaF3 parental cells (setting [2]) amounted to 22.1 µM. In test [1] (Homo sapiens, MM1.S, 72 h), the EC50 was 1.4 µM.
